Source: US8598342B2, “Methods and compounds for antimicrobial intervention” (President and Fellows of Harvard College, priority 2008, dated 2013)
Like-named read-outs stand apart in the source and are kept apart here.

Assays:
[1] = system: wildtype S. aureus RN4220; assay: MIC / growth inhibition of wildtype S. aureus RN4220 (optical density); format: cell-based; details: Staphylococcus aureus
Description: (§1) (A) Targocil MIC data for a panel of Gram-positive strains, including MRSA clinical isolates B5271 and 5340A. Growth was monitored in triplicate after 12 h at 28° C. using optical density. (B) Two dimensional drug interaction analysis between tunicamycin and targocil grown for 18 h at 30° C. […] At higher concentrations, tunicamycin is toxic because it inhibits cell wall biosynthesis. […] Varying concentrations of drug were added to […] of S. aureus RN4220 after 5 h and cell count was monitored over time at 30° C. […] Cells were grown at 28° C. for 12 h and monitored for growth using optical density (OD600). Data were normalized to the DMSO controls for each strain. (E) Two classes of mutants were examined: phage resistant (m1 3) and phage sensitive (m4-5).
A library of 55,000 small molecules was screened in duplicate at a concentration of ˜40 μM against S. aureus RN4220 and the corresponding ΔtarO strain using optical density to monitor growth. We obtained 45 initial hits and confirmed three lead compounds that inhibited the growth of the wildtype strain but had no activity against the ΔtarO strain. […] (FIG. 16A and FIG. 18) (Lazarevic V, Abellan F X, Moller S B, Karamata D, & Mauel C (2002) Microbiology-Sgm 148:815-824)
On the night before screening, a single colony of each strain was grown in TSB (Cm 10). On the day of screening, 384 well plates (Corning® 3710) were filled with […] of TSB (Cm 10). […]
The following day the plates were read using a Perkin Elmer Envision plate reader for both OD600 and fluorescence at the appropriate wavelength for Gfp ([…]) and Mcherry ([…]). Data were collected and analyzed to identify compounds that killed the wildtype strain but not the ΔtanO mutant. […]
For a secondary screen, hits from the primary screen were evaluated against wildtype and the ΔtarO mutant as described above, but the compound was investigated using a four point dose-response curve starting at a concentration of 50 μM and doing two-fold serial dilutions. […]

[2] = system: S. aureus strains, including five MRSA strains; assay: In vitro MIC against a panel of S. aureus strains including MRSA; format: cell-based, Staphylococcus aureus
Description: as §1
(G. Bou, (2007) Methods Mol Biol 391, 29)

B. subtilis 168 = assay: MIC panel of Gram-positive strains: B. subtilis 168; format: cell-based, Bacillus subtilis
Description: as §1

S. aureus TarF = target: T1, S. aureus TarF (Staphylococcus aureus, UniProt Q2G1C1); assay: In vitro enzyme inhibition assay, TarF (radiometric); format: biochemical; details: targocil 50 μg/mL; enzyme 200 nM
T1 construct: made in house
T1 sequence (Q2G1C1 1-389): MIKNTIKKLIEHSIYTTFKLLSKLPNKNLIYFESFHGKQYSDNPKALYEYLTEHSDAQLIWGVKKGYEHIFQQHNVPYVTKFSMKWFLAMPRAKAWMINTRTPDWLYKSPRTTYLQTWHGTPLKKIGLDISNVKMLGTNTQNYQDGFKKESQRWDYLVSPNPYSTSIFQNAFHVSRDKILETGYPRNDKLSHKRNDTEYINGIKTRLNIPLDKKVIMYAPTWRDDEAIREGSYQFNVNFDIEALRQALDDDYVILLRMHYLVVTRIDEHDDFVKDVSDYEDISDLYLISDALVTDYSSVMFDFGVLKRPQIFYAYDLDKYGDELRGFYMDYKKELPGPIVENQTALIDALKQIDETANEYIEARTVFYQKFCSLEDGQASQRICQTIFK
Description: S. aureus TarB, D, F, I, and L were cloned, overexpressed and purified as described previously (S. Brown, Y. H. Zhang, S. Walker, Chemistry & Biology 15, 12, Jan. 2008.) Radiometric in vitro assays were run to test the inhibitory effects of targocil on Tar B, D, F, and L, while TarI was assayed for targocil inhibition using an HPLC assay using conditions similar to those previously reported (ibid). See below for exact reaction conditions. […] In each case, a reaction with no targocil served as a negative control (active enzymatic reaction) and a reaction with heat-treated enzyme served as a positive control (no enzymatic reaction). Targocil was incubated with all reaction components except the substrates at room temperature. After 10 minutes, substrates were added and the reactions were allowed to proceed for 60 minutes. The reactions were quenched with DMF and the products were imaged/monitored as previously described (ibid).
TarF in vitro inhibition assay protocol. Each 3 μL reaction contained 1 μM [14C]-GroP-ManNAc β-(1,4)-GlcNAc-pp-farnesyl, 3 μM [14C]-CDP-glycerol, 20 mM Tris base pH 7.5, 100 mM NaCl, 10 mM MgCl2, 200 nM TarF. The reactions were quenched and imaged as described above for TarB.

[3] = system: IPTG-inducible tarO strain of S. aureus; assay: Growth of the IPTG-inducible tarO strain as a function of targocil concentration; format: cell-based, Staphylococcus aureus
Text: (Top) Schematic of the IPTG-inducible tarO operon. […] Data were normalized to the DMSO controls for each strain.

## CCN(CC)c1nc2c(S(=O)(=O)c3ccccc3)nnn2c2ccc(Cl)cc12 [7-chloro-N,N-diethyl-3-(phenylsulfonyl)-[1,2,3]triazolo[1,5-a]quinazolin-5-amine]
[1]; read-out: minimum inhibitory concentration (MIC)
  MIC: 1.3 µg/mL
[1]; result of the WTA inhibitor screen, read-out: minimum inhibitory concentration
  MIC: ~3 µM
[1]; wildtype S. aureus RN4220, read-out: minimum inhibitory concentration (MIC)
  MIC: 3 µM
[2]; RN4220, RN450, Newman strain, Wood strain
  effectiveness against strains of S. aureus: effective against numerous strains of S. aureus
[2]; including five MRSA strains
  in vitro MIC values against all tested S. aureus strains: low μg/mL range
[2]; panel of Gram-positive strains
  species selectivity of antibiotic activity: selective for S. aureus
B. subtilis 168
  susceptibility of B. subtilis 168: targocil resistance in B. subtilis 168
S. aureus TarF
  inhibition of TarF: None of these enzymes was inhibited
[3]; in the absence of IPTG
  effect on cell growth, tarO not induced: no effect
[3]; in the presence of IPTG
  effect on cell growth, tarO induced: inhibited cell growth
